These results are taken from US10751417B2, “Sustained release delivery systems comprising traceless linkers” (NOVARTIS AG, priority 2017, dated 2020).

A short description of data set [1]: Release study 8-4b: degradation of model conjugates M20-M27 in aqueous DMF:PBS at 37 °C, HPLC-UV/MS. The data set is classed as physicochemical. The following applies: first order fit; for half-life at 1 mM: read-out: Calculated stability t1/2, parent (converted). The method, then: 8-4b. M20-M27 In Vitro Release Study
In this study, a series of model traceless linker-drug conjugates M20-M27 was held in aqueous solution at 37° C. These reactions were sampled at various timepoints and analyzed to determine the concentration of remaining starting compound. The analytical method was not optimized to determine concentration of the amine-containing drug. Half-life of degradation for the parent was calculated.
Method for Estimation of Conjugate Degradation Rates for M20-M27
Each compound M20-M27 was prepared as a 0.1 M stock solution in DMF. A 35 μL aliquot of each solution was added to 3.465 mL of 2:1 DMF:PBS (for compound M24: 3:1 DMF:PBS) to obtain 1 mM solutions of each compound M20-M27. The reaction vials were held at 37° C. At each time point (e.g., 0, 1, 3, 8, 14, 21, 28, 35, 49, 56, 70, 92 days) analytical samples were prepared by collecting 150 μL from each 1 mM solution and diluting with 75 μL DMF. Two analytical samples were collected from each reaction vial at each time point and stored at 4° C. All samples were analyzed in one batch after completion of the release study. Each sample was analyzed twice using an analytical HPLC method described below.
The composition of the reaction solution was evaluated at each timepoint using HPLC. Compound M20-M27 peaks were assigned by MS detection, and the integration of the peak from the chromatogram generated using UV absorbance detection at 272 nm was determined. The mean peak area for each compound M20-M27 on Day 0 was assigned a normalized value of 100. The absolute area under the curve at each timepoint was compared with these values. Run-to-run peak area reproducibility was typically within 20% on strong signal and considerably worse on weak signals, so normalized signals above 100 likely correspond to values at or approaching 100 (likely 90-100, within experimental error). The percentage of compounds M20-M27 remaining in the solution were calculated by dividing the relevant peak area by the mean area that was assigned a normalized value of 100 and multiplying the result by 100. The percentage of compound M20-M27 present in the solution was plotted versus time and the half-life of degradation was estimated using curve-fitting software assuming first order kinetics.
Analytical HPLC-MS Conditions for Study 8.4b.
All settings the same as for analytical HPLC-MS conditions for study 8.4a except the following: Mobile Phases: A=5 mM ammonium hydroxide in water; B=5 mM ammonium hydroxide in acetonitrile; Flow Rate: 400 μL/min: Gradient (time/% B): 0/10, 0.5/10, 4/80, 8/80, 8.1/10, 12/10. Divert valve switched at 0.5 minutes after sample injection.

A short description of data set [2]: Release study 8-4a: model traceless linker-drug conjugates M1-M19 held in 1×PBS at 37 °C, HPLC-UV/MS. The following applies: 1 mM in 1×PBS, first order fit, rounded to nearest whole day; for half-life at 1 mM: read-out: Calculated stability t1/2, parent (converted). In kind it is physicochemical. The method, then: 8-4a. Release Study Protocol for M1-M19 Model Traceless Linker-Drug Conjugates In Vitro
In this study a series of model traceless linker-drug conjugates, in which the drug is a low molecular weight amine-containing compound, was held in 1×PBS at 37° C. These reactions were sampled at various timepoints and analyzed to determine concentration of remaining starting compound, as well as concentration of the released amine-containing drug (p-methoxybenzylamine, 2-amino-pyridine, p-methoxyaniline, or N-methyl-p-methoxybenzylamine). Half-lives for the parent degradation and the half-lives of release for the amine-containing drug were calculated.
Method for Estimation of Amine-Containing Drug Release Rates from M1-M19
Each compound M1-M19 was prepared as a 0.1 M stock solution in DMF, as were a set of standard solutions for the released amine-containing drug (4-methoxybenzylamine, 2-aminopyridine, p-methoxyaniline, and N-methyl-p-methoxybenzylamine). A 35 μL aliquot of each solution was added to 3.465 mL of PBS to obtain 1 mM solutions of each conjugate or amine-containing drug. A 150 μL aliquot of each 1 mM solution was dispensed into LCMS vials with a polypropylene insert; 2 vials were prepared for each compound at each time point.
The vials were incubated at 37° C. At each time point (e.g., 0, 1, 5, 7, 14, 21, 28, 35, 49, and 56 days), two vials of each conjugate were removed from the incubator and frozen at −20° C. to avoid further hydrolysis. All samples were thawed and analyzed in one batch after completion of the release study using the analytical HPLC method described below. Each sample was analyzed twice. Control solutions of the amine-containing drugs were prepared prior to analysis and were analyzed as is without prior incubation at 37° C.
Analytical HPLC-MS Conditions for Study 8.4a
HPLC: Thermo Accela HPLC and Autosampler; Autosampler Tray Temperature: 8° C.; Injection Volume: 20 μL; Column: Phenomenex Kinetex C18, 2.1×50 mm, 2.6 μm. Column Temperature: Ambient; Mobile Phases: A=0.1% formic acid in water; B=0.1% formic acid in acetonitrile; Flow Rate: 200 μL/min. Gradient (time/% B): 0/0, 3/0, 10/80, 15/80, 15.1/0, 18/0.
UV: Thermo Accela PDA; Scan Range: 200-400 nm; Wavelength Step: 1 nm; Sample Rate: 20 Hz; Filter Bandwidth: 9 nm; MS: Thermo LTQ XL; Ionization Mode: ESI; Spray Voltage: 0 V at time 0-1 minutes then switched to 4 kV; Capillary Temperature: 250° C.; Divert Valve: LC eluate to waste at time 0-1 minutes then flow diverted MS; Mass Range: 120-800 Da.
The composition of the solution was evaluated at each timepoint using HPLC. Parent, intermediate and released amine-containing drug peaks were assigned by MS detection, and the relative amounts of each species were determined by integration of the peaks from the chromatogram generated using UV absorbance detection at 272 nm. The mean peak area for each compound M1-M19 on Day 0 was assigned a normalized value of 100. For the standard of the amine-containing drug being released (e.g., p-methoxybenzylamine) the mean peak area of each standard was assigned a normalized value of 100. The absolute area under curve for each species detected were compared with these values. Run-to-run peak area reproducibility was typically within 20% on strong signal and considerably worse on weak signals, so normalized signals above 100 likely correspond to values at or approaching 100 (likely 90-100, within experimental error). The percentage of parent and amine-containing drug present in the solution were calculated by dividing the relevant peak area by the mean area that was assigned a normalized value of 100 for the same species and multiplying the result by 100. The percentage of parent and amine-containing drug present in the solution was plotted versus time and the half-life of degradation for the parent and the half-life of release for the amine-containing drug were estimated using curve-fitting software assuming first order kinetics.

The mark [3] stands for this setting: 1 mM in 2:1 DMF:PBS, rounded to nearest whole day.

Turning to `CCC(C)O[Si](CC)(CC)OCC1CN(C(=O)CCNC(=O)OCc2ccccc2)CCN1CC(=O)NCc1ccc(OC)cc1` (centres unmarked) [M25], the half-life at 1 mM in data set [1] (setting [3]) was 80 days.
As to `COc1ccc(CNC(=O)CN2CCN(C(=O)CCNC(=O)OCc3ccccc3)CC2CO[Si](OC(C)C)(C(C)C)C(C)C)cc1` (centres unmarked) [M26, benzyl N-(3-(3′-(((isopropoxydiisopropylsilyl)oxy)methyl)-4′-(2″-((4′′′-methoxybenzyl)amino)-2″-oxoethyl)piperazin-1′-yl)-3-oxopropyl)carbamate], the “Calculated stability t1/2, parent (d)” value in data set [1] (setting [3]) is given as “No degradation”.
On to `CC[Si](CC)(OCC1CN(C(=O)CCNC(=O)OCc2ccccc2)CCN1CC(=O)NCc1ccc(OC)cc1)OC1CCOCC1` (centres unmarked) [M21], for which the half-life at 1 mM in data set [1] (setting [3]) was 126 days.
The same measure, in the same setting: then `CCOCC(C)O[Si](CC)(CC)OCC1CN(C(=O)CCNC(=O)OCc2ccccc2)CCN1CC(=O)NCc1ccc(OC)cc1` (centres unmarked) [M23], with 47 days.
For the compound `COc1ccc(CNC(=O)CN2CCN(C(C)=O)CC2COC2CCCCO2)cc1` (centres unmarked) [M10, 2-(4′-acetyl-2′-(((tetrahydro-2″H-pyran-2″-yl)oxy)methyl)piperazin-1′-yl)-N-(4′″-methoxybenzyl)acetamide], the “Calculated stability t1/2, parent (d)” value in data set [2] was “No degradation”.
Turning to `COc1ccc(CNC(=O)CN2CCN(C(C)=O)CC2COC(C)=O)cc1` (centres unmarked) [M6, (4-acetyl-1-(2′-((4″-methoxybenzyl)amino)-2′-oxoethyl)piperazin-2-yl)methyl acetate], in data set [2], the half-life at 1 mM is 26 days.
In the case of `COC(=O)C1CN(C(C)=O)CCN1CC(=O)NCc1ccc(OC)cc1` (centres unmarked) [M7, methyl 4-acetyl-1-(2′-((4″-methoxybenzyl)amino)-2′-oxoethyl)piperazine-2-carboxylate], the half-life at 1 mM in data set [2] is 3 days.
Regarding `CC[Si](CC)(OCCOCCOC)OCC1CN(C(=O)CCNC(=O)OCc2ccccc2)CCN1CC(=O)NCc1ccc(OC)cc1` (centres unmarked) [M22], the half-life at 1 mM in data set [1] (setting [3]) was 23 days.
In the case of `COc1ccc(CNC(=O)CN2CCN(C(=O)CCNC(=O)OCc3ccccc3)CC2COC(C)=O)cc1` (centres unmarked) [M2, (4-(3′-(((benzyloxy)carbonyl)amino)propanoyl)-1-(2″-((4″′-methoxybenzyl)amino)-2″-oxoethyl)piperazin-2-yl)methyl acetate], the half-life at 1 mM in data set [2] is 23 days.
Take `COCC(=O)OCC1CN(C(=O)CCNC(=O)OCc2ccccc2)CCN1CC(=O)NCc1ccc(OC)cc1` (centres unmarked) [M3, (4-(3′-(((benzyloxy)carbonyl)amino)propanoyl)-1-(2″-((4″′-methoxybenzyl)amino)-2″-oxoethyl)piperazin-2-yl)methyl methoxyacetate]: the half-life at 1 mM in data set [2] was 2 days.
Same read-out and setting: then `CCC1CCN(CC(=O)Nc2ccccn2)C(COC(C)=O)C1` (centres unmarked) [M19, 1-(4′-ethyl-1′-(2″-oxo-2″-(pyridin-2″′-ylamino)ethyl)piperidin-2′-yl)methyl acetate], with 6 days.
Regarding `CC[Si](CC)(OCC(C)C)OCC1CN(C(=O)CCNC(=O)OCc2ccccc2)CCN1CC(=O)NCc1ccc(OC)cc1` (centres unmarked) [M24], the half-life at 1 mM in data set [1] (1 mM in 3:1 DMF:PBS (compound M24)) is 36 days.
In the case of `CCC(=O)OCC1CN(C(=O)CCNC(=O)OCc2ccccc2)CCN1CC(=O)NCc1ccc(OC)cc1` (centres unmarked) [M1, (4-(3′-(((benzyloxy)carbonyl)amino)propanoyl)-1-(2″-((4″′-methoxybenzyl)amino)-2″-oxoethyl)piperazin-2-yl)methyl propionate], in data set [2], the half-life at 1 mM was 37 days.
As to `CC[Si](CC)(OCC1CN(C(=O)CCNC(=O)OCc2ccccc2)CCN1CC(=O)NCc1ccc(OC)cc1)OC(C)C` (centres unmarked) [M20, Benzyl N-(3-(3′-(((diethyl(isopropoxy)silyl)oxy)methyl)-4′-(2″-((4′″-methoxybenzyl)amino)-2″-oxoethyl)piperazin-1′-yl)-3-oxopropyl)carbamate], the half-life at 1 mM in data set [1] (setting [3]) is 51 days.
On to `COCC(=O)OCC1CN(C(=O)CCNC(=O)OCc2ccccc2)CCN1CC(=O)Nc1ccc(OC)cc1` (centres unmarked) [M5, (4-(3′-(((benzyloxy)carbonyl)amino)propanoyl)-1-(2′-((4″′-methoxyphenyl)amino)-2″-oxoethyl)piperazin-2-yl)methyl 2″″-methoxyacetate], for which, in data set [2], the half-life at 1 mM is 3 days.
Consider `CNC(=O)OCC1CN(C(C)=O)CCN1CC(=O)NCc1ccc(OC)cc1` (centres unmarked) [M9, 1-(4′-acetyl-1′-(2″-((4″′-methoxybenzyl)amino)-2″-oxoethyl)piperazin-2′-yl)methyl N-methylcarbamate], for which the “Calculated stability t1/2, parent (d)” value in data set [2] was “No degradation”.
On to `COC(=O)OCC1CN(C(C)=O)CCN1CC(=O)NCc1ccc(OC)cc1` (centres unmarked) [M8, (4-acetyl-1-(2′-((4″-methoxybenzyl)amino)-2′-oxoethyl)piperazin-2-yl)methyl methyl carbonate], for which, in data set [2], the half-life at 1 mM is 35 days.
On to `COCC(=O)OCC1CN(C(=O)CCNC(=O)OCc2ccccc2)CCN1CC(=O)N(C)Cc1ccc(OC)cc1` (centres unmarked) [M4, (4-(3′-(((benzyloxy)carbonyl)amino)propanoyl)-1-(2″-((4′″-methoxybenzyl)(methyl)amino)-2″-oxoethyl)piperazin-2-yl)methyl 2-methoxyacetate], for which the half-life at 1 mM in data set [2] is 2 days.
On the same count and under the same terms, then `CC(=O)OCC1CN(C)CCN1CC(=O)Nc1ccccn1` (centres unmarked) [M18, 1-(4′-methyl-1′-(2″-oxo-2″-(pyridin-2′″-ylamino)ethyl)piperazin-2′-yl)methyl acetate], with 8 days.
Take `CC(=O)OCC1CN(C(C)=O)CCN1CC(=O)Nc1ccccn1` (centres unmarked) [M17, 1-(4′-acetyl-1′-(2″-oxo-2″-(pyridin-2′″-ylamino)ethyl)piperazin-2′-yl)methyl acetate]: in data set [2], the half-life at 1 mM was 50 days.
